{"source": "patent US20190374509A1", "about": "“Methods of Using Metamizole for Treatment of Pyrexia in Equines” (Kindred Biosciences, Inc., priority 2018, published 2019)", "system": "horses", "assay": "Coagulation effects study, IV BID or TID for 9 days: coagulation panel", "assay_type": "in vivo", "settings": "for Prothrombin Time LSMEAN: in s; for Difference in Individual Horse Day 10 PT and Baseline PT: Day 10 PT minus highest baseline PT", "protocol": "The purpose of this study was to evaluate the effects of metamizole on coagulation parameters and pharmacokinetic parameters when administered intravenously to horses for 9 days at doses of 0 mg/kg (0×), 30 mg/kg (1×), 60 mg/kg (2×), and 90 mg/kg (3×) of body weight. Doses of 0×, 1×, 2×, and 3× were administered twice daily (BID), every 12 hours±120 min. Doses of 1× and 2× were administered three times daily (TID), every 8 hours±120 min. Metamizole plasma concentrations were assessed in the 1×BID, 3×BID, 1×TID, and 2×TID treatments groups to evaluate for evidence of accumulation.\nThis was a prospective, randomized, masked, placebo-controlled, parallel-group laboratory study. The protocol was approved by the research laboratory's Institutional Animal Care and Use Committee (IACUC). The study was conducted in compliance with the principles of the relevant CVM Good Clinical Practices Guidelines. Horse care and housing was in compliance with Guide for the Care and Use of Agricultural Animals in Research and Teaching. The study was conducted at a research laboratory with extensive experience in regulatory studies of large animals in the United States.\nThe investigational drug was a sterile injectable formulation of dipyrone (Zimeta®, Corden Pharma, Caponago, Italy) (500 mg/mL) in 100 mL glass bottles. The placebo was sterile injectable saline (0.9% Saline, Nova-Tech Inc, Grand Island, NE) (0.9% sodium chloride) in 500 mL plastic bottles labeled for veterinary use. Dipyrone treatment groups were 30 mg/kg/dose (1×) administered twice daily (BID), 1× administered three times daily (TID), 60 mg/kg/dose (2×) BID, 2×TID, and 90 mg/kg/dose (3×) BID. Placebo treatment group, (0×) BID, were saline administered at a volume to match the 1× dipyrone group. The dose was calculated based on body weight and administered for nine consecutive days (Days 1-9). Due to the large volume of the injection at the higher test intervals, treatment was administered via indwelling intravenous catheters. Intravenous catheters were placed using standard techniques. Horses were sedated with xylazine (XylaMed™, VetOne, MWI, Boise, Id.) (0.6 mg/kg, IV) and the skin was desensitized with subcutaneous injection of lidocaine (Lidocaine 2%, VetOne, MWI, Boise, Id.). Intravenous catheters were replaced at the discretion of the study director and were maintained with heparinized saline flush prior to, and following, dose administration.\nHorses were acclimated to the facility for 14 days prior to start of the treatment phase. […] On Day −1, thirty-two horses were randomized by the study statistician and moved to their assigned pens. On Day −1 (baseline), Day 4, and Day 10 horses had blood collected for a coagulation panel. A physical exam was performed prior to study start and on Day 10.\nFor continuous endpoints with repeated post-treatment measurements (coagulation), repeated measurement analysis of covariance (SAS MIXED procedure repeated measures of analysis of covariance (RMANCOVA)) were used to evaluate a model including treatment, time, sex, treatment by sex interaction, treatment by time interaction, time by sex interaction, and treatment by time by sex three-way interaction as fixed effects. In addition, baseline values were included as a covariate and remained in the model regardless of its significance. Baseline values were defined as the values prior to and nearest to the first dosing.", "key": {"[1]": {"settings": "2X TID, 60 mg/kg IV three times daily"}, "[2]": {"settings": "3X BID, 90 mg/kg IV twice daily"}}, "data": [{"smiles": "Cc1c(N(C)CS(=O)(=O)O)c(=O)n(-c2ccccc2)n1C", "note": "[dipyrone, [(2,3-dihydro-1,5-dimethyl-3-oxo-2-phenyl-1H-pyrazol-4-yl)methylamino] methanesulfonic acid]", "values": [{"measurement": "Prothrombin Time LSMEAN", "setting": "1X BID, 30 mg/kg IV twice daily for 9 days", "value": 13.407}, {"measurement": "Prothrombin Time LSMEAN", "setting": "1X TID, 30 mg/kg IV three times daily for 9 days", "value": 13.553}, {"measurement": "Prothrombin Time LSMEAN", "setting": "2X BID, 60 mg/kg IV twice daily for 9 days", "value": 13.469}, {"measurement": "Prothrombin Time LSMEAN", "setting": "2X TID, 60 mg/kg IV three times daily for 9 days", "value": 13.733}, {"measurement": "Prothrombin Time Day 4 Range", "setting": "[1]", "value": "12.9 to 15.6", "unit": "s"}, {"measurement": "Prothrombin Time Day 10 Range", "setting": "[1]", "value": "13.2 to 16.6", "unit": "s"}, {"measurement": "Difference in Individual Horse Day 10 PT and Baseline PT", "setting": "[1]", "value": "0.1 to 0.5", "unit": "s"}, {"measurement": "Prothrombin Time LSMEAN", "setting": "3X BID, 90 mg/kg IV twice daily for 9 days", "value": 14.238}, {"measurement": "Prothrombin Time Day 4 Range", "setting": "[2]", "value": "13.2 to 14.5", "unit": "s"}, {"measurement": "Prothrombin Time Day 10 Range", "setting": "[2]", "value": "13.4 to 14.9", "unit": "s"}, {"measurement": "Difference in Individual Horse Day 10 PT and Baseline PT", "setting": "[2]", "value": "0.1 to 0.7", "unit": "s"}, {"measurement": "Activated partial thromboplastin time (APTT) or fibrinogen", "setting": "all treatment groups (30-90 mg/kg IV BID or TID, 9 days)", "value": "No main treatment effect"}]}]}
